Laboratory results taken from patent US12653827B2, “Methods of treating indolent systemic mastocytosis” (Telios Pharma Inc., priority 2024, dated 2026).
Where two headings read alike, the source gives them in different places.

Experiments:
basophils [1] = assay: Basophil Activation Test (BAT), CD63, anti-FcεR stimulated blood from healthy donors; type: cell-based, human; conditions: for EC50: Homo sapiens
Procedure: (§1) The BAT was conducted as set forth in Santos (2021) Allergy, 76:2420-2432. Blood from six healthy donors was drawn and Compound 128 was added at various concentrations (10 μM, 3.16 μM, 1 μM, 0.3 μM, 0.1 μM, 0.03 μM, or 0 μM). Blood samples were gently rocked at room temperature for 2 hours, 24 hours, or 48 hours. The BAT assay using the Flow Cast Basophil Activation Kit (Buhlmann Diagnostics; Catalog #B-CCR-STCON) was then conducted following manufacturer instructions by (1) stimulating the blood with anti-FcεR stimulation control in stimulation buffer with IL-3 and staining cells for CCR3 and CD63 for 15 minutes at 37° C., (2) lysing red blood cells and fixing cells with Lysing Reagent at room temperature for 10 minutes, (3) washing cells with Wash Buffer, and (4) acquiring data on a flow cytometer. Activated basophils were defined as CCR3+, low side scatter and CD63+. Percent of activated basophils was calculated as number of activated basophils over the total number of basophils. A four-parameter logistic regression was applied to determine the EC50 and EC90.

basophils [2] = assay: Comparison of BTK inhibitors by BAT (CD63 and CD203c); type: cell-based, human; conditions: concentration of 1 μM; 2 hours; blood from a healthy donor
Procedure: as §1, with “The” for “The BAT was conducted as set forth in Santos (2021) Allergy, 76:2420-2432. Blood from six healthy donors was drawn and Compound 128 was added at various concentrations (10 μM, 3.16 μM, 1 μM, 0.3 μM, 0.1 μM, 0.03 μM, or 0 μM). Blood samples were gently rocked at room temperature for 2 hours, 24 hours, or 48 hours. The”
Blood samples were gently rocked at room temperature for 2 hours. […] Activated basophils were also defined as CCR3+, low side scatter and CD203c+.

human mast cells = assay: Antigen-induced degranulation (CD63 and histamine) in ISM-like human mast cells; type: cell-based; conditions: six healthy donors, treated two hours
Procedure: Human mast cells were derived from bone marrow CD34+ cells from six healthy donors for up to eight weeks by culturing CD34+ cells in StemSpan SFEM II (Stem Cell Technologies) supplemented with stem cell factor (SCF; 100 ng/mL; R&D System), IL-6 (R&D Systems), IL-3 (R&D Systems) and 1% penicillin/streptomycin (P/S; Gibco) for the first 10 days and in StemSpan SFEM II supplemented with SCF and IL-6 and 1% P/S for the remaining time in culture. […] Supernatant was collected and histamine levels were measured using a Histamine ELISA kit (Eagle Biosciences). […] Percent of activated mast cells was calculated as number of activated mast cells over the total number of mast cells.
Human mast cells were differentiated from bone marrow CD34+ cells from six healthy donors, cultured and sensitized as set forth in Example 4. […] The median fluorescence intensity of phosphorylated BTK was measured. CD63 and histamine levels in these cells were measured and percent activated mast cells were calculated as set forth in Example 4. The percent of stimulated control for pBTK, activated mast cells (CD63+) and histamine levels was calculated. […]

mast cells [3] = assay: Monomeric IgE-mediated degranulation and cytokine production in mast cells; type: cell-based, human; conditions: mast cells from a healthy donor, treated 2 hours, myeloma IgE with SCF
Procedure: Mast cells from a healthy donor were starved of SCF for 18 hours and treated with Compound 128 for 2 hours. Mast cells were stimulated with SCF (100 ng/mL) or myeloma IgE (3 μg/mL; Millipore Sigma) alone or in combination for 30 minutes (CD63 and Histamine) or 24 hours (cytokine production), respectively. For the histamine and cytokine test, supernatant was collected and the levels of histamine and cytokines were measured as set forth in Example 4 for histamine and Example 7 for cytokines. For the CD63 test, the cells were stained for CD63, data was acquired on a flow cytometer and percent activated mast cells calculated as set forth in Example 4. […] The monomeric IgE contribution to degranulation and cytokine production is inhibited by Compound 128.

mast cells [4] = assay: Potency across healthy and ISM mast cells (FIG. 16); type: cell-based; conditions: presence of SCF; CD63, CD203, pBTK, histamine, calcium flux
Procedure: Healthy BM-MC donor 0166 and ISM WB-MC 1061-004 17 Jan. 2024 and 17 Oct. 2024. Experiments performed in the presence of SCF. Sensitization and Stimulation: NP-IgE (100 ng/mL) 18 hrs, NP-BSA (0.5 ng/mL) for 15 min at 37° C. (CD63, CD203, pBTK and histamine) or 4 min at RT (Calcium Flux).

[5] = system: calcium influx in mast cell; assay: IgE-mediated calcium influx in ISM patient mast cells (FIG. 17); type: cell-based; conditions: presence of SCF
Procedure: Mast cell from an ISM patient was treated with Compound 128 at 50 mg, 75 mg, 100 mg, and 150 mg BID dose prior to antigen (Ag) stimulation. ISM 3-2 mast cell donor MC 1061-004 C1D8 D39. Experiments performed in the presence of SCF. […] Percent of Control (POC) based on Area-under-Curve above baseline (1st value).

mast cells [6] = assay: Degranulation of mast cells grown from CD34+ blood cells of ISM patients (FIG. 22); type: cell-based; conditions: absence of SCF at the time of stimulation

Question: What does the source list for `C=CC(=O)N1CCC(F)(CNc2ncnc(N)c2-c2ccc(Oc3ccccc3)cc2)CC1` [Compound 128, 1-(4-(((6-amino-5-(4-phenoxyphenyl)pyrimidin-4-yl)amino)methyl)-4-fluoropiperidin-1-yl)prop-2-en-1-one]?
Answer: EC50 (basophils [1]; 2-hour drug exposure, blood from six healthy donors, read-out: average EC50, inhibition of anti-FcεR induced basophil activation (CD63+)): 500 nM; EC50 (basophils [1]; 24-hour drug exposure, blood from six healthy donors, read-out: average EC50, inhibition of anti-FcεR induced basophil activation (CD63+)): 120 nM; EC50 (basophils [1]; 48-hour drug exposure, blood from six healthy donors, read-out: average EC50, inhibition of anti-FcεR induced basophil activation (CD63+)): 100 nM; EC50 (basophils [1]; 24 hours exposure, Example 2, read-out: average EC50 (n=4), CD63 normalized to DMSO control in CCR3+ basophils): 120 nM; potency increase of basophil activation inhibition (basophils [1]; after 24 hours drug exposure): approximately 4 fold; effect on basophil activation (CD63+, CD203c+) (basophils [2]): fully inhibits basophil activation; inhibition of IgE-mediated degranulation (CD63 and histamine) (human mast cells): potently inhibits; monomeric IgE contribution to degranulation and cytokine production (mast cells [3]): inhibited; potency across healthy mast cells and ISM mast cells (mast cells [4]): equipotent; inhibition of IgE-mediated calcium influx [5]: potently inhibits; degranulation of ISM patient-derived mast cells (mast cells [6]): inhibited
